Values joined by “and” are separate entries in the source; they are usually repeats but may differ in a detail not shown here. Equal entries are not always repeated. Inconclusive results and toxic doses are left out. No stated cut-off is given here; in the data, active means T/C of 150% or more; inactive means T/C below 125%.
Test system: L1210 leukemia ip in BDF1 mice, survival T/C
Test: NCI In Vivo Anticancer Drug Screen. Data for tumor model L1210 Leukemia (intraperitoneal) in B6D2F1 (BDF1) mice
Conditions: endpoint: mean survival time, higher = longer survival
Summary of the method: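 Antitumor effect is assessed in tumor-bearing animals. Survival in the compound arm is compared with a vehicle-dosed control arm and expressed as their quotient.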

[1] = dose: 25.0 mg/kg/injection, schedule: Q01DX009 (ip), vehicle: saline
[2] = dose: 50.0 mg/kg/injection, schedule: Q01DX001 (ip), vehicle: saline
[3] = dose: 50.0 mg/kg/injection, schedule: Q01DX009 (ip), vehicle: saline
[4] = dose: 100.0 mg/kg/injection, schedule: Q01DX001 (ip), vehicle: saline
[5] = dose: 100.0 mg/kg/injection, schedule: Q01DX009 (ip), vehicle: saline
[6] = dose: 100.0 mg/kg/injection, schedule: Q04DX003 (ip), vehicle: saline
[7] = dose: 200.0 mg/kg/injection, schedule: Q01DX001 (ip), vehicle: saline
[8] = dose: 400.0 mg/kg/injection, schedule: Q01DX001 (ip), vehicle: saline
[9] = dose: 100.0 mg/kg/injection, schedule: Q01DX009 (ip), vehicle: Klucel (hydroxypropylcellulose) (HPC)
[10] = dose: 200.0 mg/kg/injection, schedule: Q01DX009 (ip), vehicle: Klucel (hydroxypropylcellulose) (HPC)
[11] = dose: 50.0 mg/kg/injection, schedule: Q01DX009 (ip), vehicle: Klucel (hydroxypropylcellulose) (HPC)
[12] = dose: 100.0 mg/kg/injection, schedule: Q04DX003 (ip), vehicle: Klucel (hydroxypropylcellulose) (HPC)
[13] = dose: 200.0 mg/kg/injection, schedule: Q04DX003 (ip), vehicle: Klucel (hydroxypropylcellulose) (HPC)
[14] = dose: 400.0 mg/kg/injection, schedule: Q01DX009 (ip), vehicle: Klucel (hydroxypropylcellulose) (HPC)
[15] = dose: 400.0 mg/kg/injection, schedule: Q04DX003 (ip), vehicle: Klucel (hydroxypropylcellulose) (HPC)
[16] = dose: 50.0 mg/kg/injection, schedule: Q04DX003 (ip), vehicle: Klucel (hydroxypropylcellulose) (HPC)
[17] = dose: 100.0 mg/kg/injection, schedule: Q01DX009 (ip), vehicle: saline with Tween-80
[18] = dose: 200.0 mg/kg/injection, schedule: Q01DX009 (ip), vehicle: saline with Tween-80

Measured: T/C

CN(C)CCN=C(Nc1ccccn1)Nc1ccccn1
inactive: dose: 12.5 mg/kg/injection, schedule: Q01DX001 (ip), vehicle: saline 113 % of control | dose: 25.0 mg/kg/injection, schedule: Q01DX001 (ip), vehicle: saline 104 % of control | [1] 110 % of control | dose: 25.0 mg/kg/injection, schedule: Q04DX003 (ip), vehicle: saline 100 % of control | [2] 113 % of control | [3] 100 % of control | dose: 50.0 mg/kg/injection, schedule: Q04DX003 (ip), vehicle: saline 95 % of control | [4] 97 % of control | [5] 97 % of control | [6] 113 % of control

Cn1c(C2=CC(=O)c3ccccc3C2=O)c(C2=CC(=O)c3ccccc3C2=O)c2ccccc21
inactive: [2] 102 % of control | [4] 98 % of control | [7] 104 % of control | [8] 102 % of control

COc1ccc(OC)c(NC(=O)Nc2ccc(OC)cc2OC)c1
inactive: [5] 110 % of control | dose: 200.0 mg/kg/injection, schedule: Q01DX009 (ip), vehicle: saline 113 % of control | dose: 400.0 mg/kg/injection, schedule: Q01DX009 (ip), vehicle: saline 108 % of control

Brc1ccc(/C=C2\C=Cc3ccccc32)cc1
inactive: dose: 100.0 mg/kg/injection, schedule: Q01DX001 (ip), vehicle: carboxymethylcellulose (CMC) 98 % of control | dose: 200.0 mg/kg/injection, schedule: Q01DX001 (ip), vehicle: carboxymethylcellulose (CMC) 93 % of control | dose: 400.0 mg/kg/injection, schedule: Q01DX001 (ip), vehicle: carboxymethylcellulose (CMC) 93 % of control

COc1cccc(Cc2c[nH]c(=S)[nH]c2=O)c1
inactive: [9] 108 % of control | [10] 96 % of control

O=C1c2ccccc2C(=O)N1N(c1ccccc1)c1ccccc1
inactive: [11] 108 % of control | [12] 95 % of control | [10] 106 % of control | [13] 97 % of control | [14] 103 % of control | [15] 109 % of control

COc1ccc(Cc2c3cc(OC)c(OC)cc3cc[n+]2[O-])cc1OC
inactive: [4] 91 % of control | [7] 96 % of control | [8] 96 % of control

CN(C)c1ccc(-c2nc3ccccn3c2N)cc1
inactive: dose: 3.13 mg/kg/injection, schedule: Q01DX009 (ip), vehicle: saline 95 % of control | dose: 6.25 mg/kg/injection, schedule: Q01DX009 (ip), vehicle: saline 92 % of control and 101 % of control | dose: 12.5 mg/kg/injection, schedule: Q01DX009 (ip), vehicle: saline 100 % of control and 114 % of control

Cc1ccccc1N=Nc1c(O)n(-c2ccccc2)c(=S)n(-c2ccccc2)c1=O
inactive: dose: 37.5 mg/kg/injection, schedule: Q01DX001 (ip), vehicle: saline with Tween-80 99 % of control | dose: 75.0 mg/kg/injection, schedule: Q01DX001 (ip), vehicle: saline with Tween-80 90 % of control | dose: 150.0 mg/kg/injection, schedule: Q01DX001 (ip), vehicle: saline with Tween-80 99 % of control

CN(CCCl)Cc1ccccc1
inactive: dose: 8.2 mg/kg/injection, schedule: Q01DX Z (ip), vehicle: methylcellulose (MC) 107 % of control | dose: 18.8 mg/kg/injection, schedule: Q01DX Z (ip), vehicle: methylcellulose (MC) 109 % of control and 112 % of control | dose: 25.0 mg/kg/injection, schedule: Q01DX009 (ip), vehicle: Klucel (hydroxypropylcellulose) (HPC) 101 % of control | [1] 107 % of control | dose: 28.0 mg/kg/injection, schedule: Q01DX Z (ip), vehicle: methylcellulose (MC) 114 % of control and 121 % of control | [11] 112 % of control | [3] 103 % of control | [16] 101 % of control | dose: 63.0 mg/kg/injection, schedule: Q01DX Z (ip), vehicle: methylcellulose (MC) 87 % of control | [5] 97 % of control | [12] 108 % of control

Cc1c(N)nc(=S)[nH]c1C(=O)O
inactive: dose: 50.0 mg/kg/injection, schedule: Q01DX001 (ip), vehicle: Klucel (hydroxypropylcellulose) (HPC) 95 % of control | [16] 91 % of control | dose: 100.0 mg/kg/injection, schedule: Q01DX001 (ip), vehicle: Klucel (hydroxypropylcellulose) (HPC) 97 % of control | [12] 105 % of control | dose: 200.0 mg/kg/injection, schedule: Q01DX001 (ip), vehicle: Klucel (hydroxypropylcellulose) (HPC) 106 % of control | [13] 94 % of control

O=C1C(O)=C(Cl)C(=O)C(O)=C1Cl
inactive: [17] 106 % of control | [6] 114 % of control | [18] 95 % of control | dose: 200.0 mg/kg/injection, schedule: Q04DX003 (ip), vehicle: saline 120 % of control | dose: 400.0 mg/kg/injection, schedule: Q04DX003 (ip), vehicle: saline 116 % of control

COC(=O)c1cc(C)c(Br)c(N)c1
inactive: [9] 101 % of control | [12] 100 % of control | [10] 101 % of control | [13] 92 % of control | [14] 98 % of control | [15] 95 % of control

CCCCCC(/C=C/C1C=CC(=O)C1C/C=C/CCCC(=O)OC)OC(C)=O (centres undefined)
inactive: [17] 100 % of control | [18] 97 % of control

C=C1C(=O)O[C@@H]2C[C@@]3(C)CCC[C@H](C)C3=C[C@H]12
inactive: [4] 112 % of control | [7] 98 % of control | [8] 102 % of control

COC1OC(C)C(NC(C)=O)C(OCc2ccccc2)C1OCc1ccccc1 (centres undefined)
inactive: [12] 95 % of control | [13] 95 % of control | [15] 97 % of control

CCCCCCCCCCCCN(C)S(=O)(=O)c1ccc(Cl)c(N)c1
inactive: [17] 95 % of control | [12] 91 % of control | [18] 89 % of control | [13] 108 % of control | dose: 400.0 mg/kg/injection, schedule: Q01DX009 (ip), vehicle: saline with Tween-80 93 % of control | [15] 89 % of control
